Assay results as given in ChEMBL document CHEMBL2029230, “Identification, design and biological evaluation of heterocyclic quinolones targeting Plasmodium falciparum type II NADH:quinone oxidoreductase (PfNDH2)” (J Med Chem, 2012).

Assays:
Plasmodium falciparum [1] = experiment: Antimalarial activity against blood stage forms of Plasmodium falciparum 3D7 infected in human erythrocytes; format: functional, organism-based
[2] = Inhibition of Plasmodium falciparum cytochrome b-c1 complex using decylubiquinol as substrate by spectrophotometry
Rattus norvegicus = experiment: Volume of distribution in rat at 20 mg/kg, po; format: ADME, organism-based; set-up: dose 20 mg/kg, route oral; settings: in vivo
[3] = Inhibition of Plasmodium falciparum recombinant NDH2 expressed in Escherichia coli F571 using decyclubiquinone as substrate at 1 min by spectrophotometry
[4] = Cmax in rat at 20 mg/kg, po; format: ADME, organism-based; set-up: dose 20 mg/kg, route oral; settings: in vivo
[5] = Half life in rat at 20 mg/kg, po; format: ADME, organism-based; set-up: dose 20 mg/kg, route oral; settings: in vivo
Plasmodium berghei [6] = experiment: Antimalarial activity against Plasmodium berghei NS infected in CD1 mouse assessed as decrease in parasitemia at 20 mg/kg, po administered using DET as vehicle measured on day 4; format: functional; set-up: scale not given: the % may be the effect or the level left
HepG2 = experiment: Cytotoxicity against human HepG2 cells; format: cell-based
[7] = Tmax in rat at 20 mg/kg, po; format: ADME, organism-based; set-up: dose 20 mg/kg, route oral; settings: in vivo
Plasmodium berghei [8] = experiment: Antimalarial activity against Plasmodium berghei NS infected in po dosed CD1 mouse assessed as decrease in parasitemia measured on day 4; format: functional; settings: 96 h
Plasmodium berghei [9] = experiment: Antimalarial activity against Plasmodium berghei NS infected in CD1 mouse assessed as decrease in parasitemia at 20 mg/kg, po administered using SSV as vehicle measured on day 4; format: functional; set-up: scale not given: the % may be the effect or the level left
[10] = Total clearance in rat at 20 mg/kg, po; format: ADME, organism-based; set-up: dose 20 mg/kg, route oral; settings: in vivo
Plasmodium falciparum [11] = experiment: Antimalarial activity against chloroquine-resistant Plasmodium falciparum W2; format: functional, organism-based
Plasmodium falciparum [12] = experiment: Antimalarial activity against […]-resistant Plasmodium falciparum TM90C2B containing cytochrome-b Y268S mutant; format: functional, organism-based
[13] = Metabolic stability in human liver microsomes assessed as compound remaining at 1 uM after 60 mins; format: ADME, Microsome; settings: read-out: Stability
Liver microsomes = experiment: Half life in human liver microsomes at 1 uM; format: ADME, Microsome
[14] = AUC (0 to t) in rat at 20 mg/kg, po; format: ADME, organism-based; set-up: dose 20 mg/kg, route oral; settings: plasma

With Cc1c(-c2ccc(OCCN3CCOCC3)cc2)[nH]c2ccc(Cl)cc2c1=O the IC50 (Plasmodium falciparum [1]) was greater than 1 µM.

Work on Cc1c(-c2ccc(-c3ccc(OC(F)(F)F)cc3)nc2)[nH]c2ccccc2c1=O yielded an IC50 [2] of 0.015 µM, a Vd (Rattus norvegicus) of 3.9708 L/kg and an IC50 [3] of 0.015 µM. For the same compound, the Cmax [4] was 3.7 µg/mL, the IC50 (Plasmodium falciparum [1]) was 0.054 µM and the half-life [5] was 9.9 h. The Activity (Plasmodium berghei [6]) was 100%, the CC50 (HepG2) was greater than 50 µM and the Tmax [7] was 7 h. For the same compound, the ED50 (Plasmodium berghei [8]) was 12.8 mg/kg, the ED90 (Plasmodium berghei [8]) was 27.3 mg/kg and the Activity (Plasmodium berghei [9]) was 87.5%. For the same compound, the CL/F [10] was 0.276 L/h/kg, the IC50 (Plasmodium falciparum [11]) was 0.05 µM and the IC50 (Plasmodium falciparum [12]) was 0.344 µM. For the same compound, the remaining at 1 h, 1 µM [13] was 60%, the t1/2 (Liver microsomes) was 1.61 h and the AUC(0-t) [14] was 69.3 µg·h/mL.

Work on CCOC(=O)c1c(-c2ccc(-c3ccc(Cl)cc3)cc2)[nH]c2ccccc2c1=O yielded an IC50 (Plasmodium falciparum [1]) of 0.22 µM and an IC50 (Plasmodium falciparum [12]) of 1.15 µM.

Work on Cc1c(-c2ccc(Oc3ccc(OC(F)(F)F)cc3)nc2)[nH]c2ccccc2c1=O yielded an IC50 [3] of 0.11 µM, an IC50 (Plasmodium falciparum [1]) of 0.04 µM and an IC50 (Plasmodium falciparum [11]) of 0.05 µM.

Work on Cc1c(-c2ccc(OCCN3CCOCC3)cc2)[nH]c2cc(Cl)ccc2c1=O yielded an IC50 (Plasmodium falciparum [1]) greater than 1 µM.

With CCOC(=O)c1c(-c2ccc(-c3ccc(OC(F)(F)F)cc3)cc2)[nH]c2ccccc2c1=O the IC50 (Plasmodium falciparum [1]) was 0.347 µM.

Work on Cc1c(-c2ccc(-c3ccc(OC(F)(F)F)cc3)nc2)[nH]c2ccc(C(F)(F)F)cc2c1=O yielded an IC50 (Plasmodium falciparum [1]) greater than 1 µM.

Cc1c(-c2ccc(CN3CCOCC3)cc2)[nH]c2cc(Cl)ccc2c1=O showed an IC50 (Plasmodium falciparum [1]) greater than 1 µM.

Compound Cc1c(-c2ccc(OCCN3CCCC3)cc2)[nH]c2ccccc2c1=O has an IC50 (Plasmodium falciparum [1]) greater than 1 µM.

For Cc1c(-c2ccc(-c3ccc(OC(F)(F)F)cc3)nc2)nc2ccccc2c1OC(=O)N1CCOCC1, the Vd (Rattus norvegicus) was 2.8756 L/kg, the Cmax [4] was 8.1 µg/mL and the half-life [5] was 20.3 h. For the same compound, the Tmax [7] was 7 h, the Activity (Plasmodium berghei [9]) was 100% and the CL/F [10] was 0.098 L/h/kg. The AUC(0-t) [14] was 167 µg·h/mL.

With Cc1c(-c2ccc(-c3ccc(OC(F)(F)F)cc3)nc2)[nH]c2cc(F)cc(F)c2c1=O the IC50 [3] was 0.0026 µM and the IC50 (Plasmodium falciparum [1]) was 0.286 µM.

For COc1cccc2[nH]c(-c3ccc(-c4ccc(OC(F)(F)F)cc4)nc3)c(C)c(=O)c12, the IC50 (Plasmodium falciparum [1]) was greater than 1 µM.

Cc1c(-c2ccc(-c3ccc(C(F)(F)F)cc3)nc2)[nH]c2ccccc2c1=O showed an IC50 [3] of 0.0139 µM, an IC50 (Plasmodium falciparum [1]) of 0.102 µM and an IC50 (Plasmodium falciparum [12]) of 0.314 µM.

With Cc1c(-c2ccc(OCCN3CCN(C)CC3)cc2)[nH]c2ccccc2c1=O the IC50 (Plasmodium falciparum [1]) was greater than 1 µM.

Compound Cc1c(-c2ccc(Oc3ccc(F)cc3)nc2)[nH]c2ccccc2c1=O has an IC50 [3] of 0.588 µM and an IC50 (Plasmodium falciparum [1]) of 0.279 µM.

With Cc1c(-c2c(F)cc(-c3ccc(OC(F)(F)F)cc3)cc2F)[nH]c2ccccc2c1=O the IC50 (Plasmodium falciparum [1]) was 0.94 µM.

In the case of COc1c(-c2ccc(-c3ccc(OC(F)(F)F)cc3)nc2)[nH]c2ccccc2c1=O, the IC50 (Plasmodium falciparum [1]) is reported as 0.093 µM.

Cc1c(-c2ccc(-c3ccc(C(F)(F)F)nc3)nc2)[nH]c2ccccc2c1=O showed an IC50 (Plasmodium falciparum [1]) of 0.37 µM and an IC50 (Plasmodium falciparum [11]) of 0.329 µM.

Compound Cc1c(-c2ccc(OCCn3ccnc3)cc2)[nH]c2ccccc2c1=O has an IC50 (Plasmodium falciparum [1]) greater than 1 µM.

COc1cccc(-c2ccc(-c3[nH]c4ccccc4c(=O)c3C)cn2)c1 showed an IC50 (Plasmodium falciparum [1]) of 0.556 µM.

Cc1c(-c2ccc(-c3cccc(O)c3)nc2)[nH]c2ccccc2c1=O gave an IC50 (Plasmodium falciparum [1]) greater than 1 µM.

Work on O=c1c(CO)c(-c2ccc(-c3ccc(OC(F)(F)F)cc3)nc2)[nH]c2ccccc12 yielded an IC50 [3] of 0.407 µM and an IC50 (Plasmodium falciparum [1]) of 0.103 µM.

Work on Cc1c(-c2ccc(-c3ccc(OC(F)(F)F)cc3)nc2)[nH]c2cc(F)c(F)cc2c1=O yielded an IC50 (Plasmodium falciparum [1]) of 0.344 µM.

In the case of CCN(CC)CCCC(C)Nc1ccnc2cc(Cl)ccc12 (stereo not given) [CHLOROQUINE], the ED50 (Plasmodium berghei [8]) is reported as 3.3 mg/kg and the ED90 (Plasmodium berghei [8]) is reported as 4.6 mg/kg.

Work on Cc1c(-c2ccc(OCCN3CCCCC3)cc2)[nH]c2ccccc2c1=O yielded an IC50 (Plasmodium falciparum [1]) greater than 1 µM.

Work on Cc1c(-c2ccc(-c3ccc(OC(F)(F)F)cc3)nc2)[nH]c2c(O)cccc2c1=O yielded an IC50 (Plasmodium falciparum [1]) greater than 1 µM.

Cc1c(-c2ccc(-c3ccc(CN4CCOCC4)cc3)nc2)[nH]c2ccccc2c1=O gave an IC50 (Plasmodium falciparum [1]) greater than 1 µM.

Cc1c(-c2ccc(OC3CCOCC3)cc2)[nH]c2ccccc2c1=O showed an IC50 (Plasmodium falciparum [1]) greater than 1 µM.

Work on Cc1c(-c2ccc(-c3ccc(OC(F)(F)F)cc3)nc2)[nH]c2cc(F)c(Cl)cc2c1=O yielded an IC50 (Plasmodium falciparum [1]) of 0.39 µM.

Work on CO[C@H]1O[C@@H]2O[C@@]3(C)CC[C@H]4[C@H](C)CC[C@@H]([C@H]1C)[C@@]24OO3 yielded an ED50 (Plasmodium berghei [8]) of 3.1 mg/kg and an ED90 (Plasmodium berghei [8]) of 5.8 mg/kg.

Cc1c(-c2ccc(-c3cccc(OCCN4CCCCC4)c3)nc2)[nH]c2ccccc2c1=O showed an IC50 (Plasmodium falciparum [1]) greater than 1 µM.

Work on Cc1c(-c2ccc(-c3ccccc3C(F)(F)F)nc2)[nH]c2ccccc2c1=O yielded an IC50 [3] of 0.352 µM, an IC50 (Plasmodium falciparum [1]) of 0.109 µM and an IC50 (Plasmodium falciparum [11]) of 0.088 µM. It also gave an IC50 (Plasmodium falciparum [12]) of 0.381 µM.

For Cc1c(-c2ccc(OC3CCOCC3)cc2)[nH]c2ncccc2c1=O, the IC50 (Plasmodium falciparum [1]) was greater than 1 µM.
